These results are taken from patent US20250262179A1, “PHARMACEUTICAL COMPOSITION FOR PREVENTING AND/OR TREATING AUTOIMMUNE DISEASES” (NATIONAL CENTER FOR CHILD HEALTH AND DEVELOPMENT, priority 2022, published 2025).

For this assay, the system named is collagen-induced arthritis (CIA) model rats. Briefly: Collagen-induced arthritis (CIA) model: foot volume and arthritis score. The class given is in vivo, DA/Slc rats. Here is the method: For 9 weeks-old female DA/Slc rats, under isoflurane anesthesia employing a simplified inhalation anesthesia device for animals (model type: NARCOBIT-E (type II), Natsume Seisakusho Co., Ltd.), the tail root which is the administration site was shaved with an electric shaver, and 0.05 mL in each of left and right sides of the tail root of all animals for a total of 0.1 mL of the symptom evoking substance administration fluid was intracutaneously administrated with a syringe (Terumo Corporation) and an injection needle (Terumo Corporation). The symptom evoking substance administration fluid was prepared by adding bovine type-II collagen and an equal amount of Incomplete Freund Adjuvant to an interchangeable glass syringe (TOP Corporation), and then mixing well.
The symptom evoking substance was administered only on Day 0, and each test substance was administered before the administration of the symptom evoking substance on the first day. MTX was suspended in 0.5 w/v % methylcellulose 400 solution (MC). ALA employed was aminolevulinic acid hydrochloride, and weights shown below are weights as aminolevulinic acid hydrochloride. […]
For measurement of foot volume, the foot volumes of left and right posterior limbs were each measured on Days 0 (before grouping), 4, 7, 11, 14, and 18 with a Plethysmometer (model type: MK-101P, Muromachi Kikai Co., Ltd.). The foot volume was measured three times per foot, and the average value of the three was calculated. The foot volume of the other foot was similarly measured. The foot volume measurement value of one individual was calculated with the following mathematical formula. […]
The measurement value before grouping was set as the Pre-value and the measurement value at each measurement point after grouping was set as the Post-value, and the value of increase in foot volume (A mL) was calculated by Post-value-Pre-value for each individual.
The arthritis score measurement was measured on each of Days 0 (before grouping), 4, 7, 11, 14, and 18. […] Note that the total sum of left and right arthritis scores was calculated as the score for that individual. […]

The mark [1] stands for this setting: Day 18, oral once a day for 18 days, MTX 0.02 mg/kg, ALA 100 mg/kg, SFC 157 mg/kg.

For the compound `CN(Cc1cnc2nc(N)nc(N)c2n1)c1ccc(C(=O)N[C@@H](CCC(=O)O)C(=O)O)cc1` [MTX, (S)-2-(4-(((2,4-diaminopteridin-6-yl)methyl)methylamino)benzamido) pentanedioic acid], under setting [1], the “intergroup difference to Group 5 (control) in arthritis score” value was determined as 1.5 and the “intergroup difference to Group 5 (control) in value of increase in foot volume” value stood at 0.16 mL. Also, the “anti-inflammatory effect in CIA model rats” value (Group 1, only MTX 0.02 mg/kg oral daily) is listed as “a certain level of anti-inflammatory effect was seen”.
